From ChEMBL document CHEMBL3638675, “Alkoxy pyrimidine PDE10 inhibitors” (2014)

Target: cAMP and cAMP-inhibited cGMP 3',5'-cyclic phosphodiesterase 10A (Homo sapiens, UniProt Q9Y233)
Test: Fluorescence Polarization Assay: The activity of the compounds in accordance with the present invention as PDE10 inhibitors may be readily determined without undue experimentation using a fluorescence polarization (FP) methodology that is well known in the art (Huang, W., et al., J. Biomol Screen, 2002, 7: 215). […] In a typical experiment the PDE10 inhibitory activity of the compounds of the present invention was determined in accordance with the following experimental method. PDE10A2 was amplified from human fetal brain cDNA (Clontech, Mountain View, Calif.) using a forward primer corresponding to nucleotides 56-77 of human PDE10A2 (Accession No. AF127480, Genbank Identifier 4894716), containing a Kozak consensus sequence, and a reverse primer corresponding to nucleotides 2406-2413 of human PDE10A2.

Chain of cAMP and cAMP-inhibited cGMP 3',5'-cyclic phosphodiesterase 10A (Q9Y233 whole entry): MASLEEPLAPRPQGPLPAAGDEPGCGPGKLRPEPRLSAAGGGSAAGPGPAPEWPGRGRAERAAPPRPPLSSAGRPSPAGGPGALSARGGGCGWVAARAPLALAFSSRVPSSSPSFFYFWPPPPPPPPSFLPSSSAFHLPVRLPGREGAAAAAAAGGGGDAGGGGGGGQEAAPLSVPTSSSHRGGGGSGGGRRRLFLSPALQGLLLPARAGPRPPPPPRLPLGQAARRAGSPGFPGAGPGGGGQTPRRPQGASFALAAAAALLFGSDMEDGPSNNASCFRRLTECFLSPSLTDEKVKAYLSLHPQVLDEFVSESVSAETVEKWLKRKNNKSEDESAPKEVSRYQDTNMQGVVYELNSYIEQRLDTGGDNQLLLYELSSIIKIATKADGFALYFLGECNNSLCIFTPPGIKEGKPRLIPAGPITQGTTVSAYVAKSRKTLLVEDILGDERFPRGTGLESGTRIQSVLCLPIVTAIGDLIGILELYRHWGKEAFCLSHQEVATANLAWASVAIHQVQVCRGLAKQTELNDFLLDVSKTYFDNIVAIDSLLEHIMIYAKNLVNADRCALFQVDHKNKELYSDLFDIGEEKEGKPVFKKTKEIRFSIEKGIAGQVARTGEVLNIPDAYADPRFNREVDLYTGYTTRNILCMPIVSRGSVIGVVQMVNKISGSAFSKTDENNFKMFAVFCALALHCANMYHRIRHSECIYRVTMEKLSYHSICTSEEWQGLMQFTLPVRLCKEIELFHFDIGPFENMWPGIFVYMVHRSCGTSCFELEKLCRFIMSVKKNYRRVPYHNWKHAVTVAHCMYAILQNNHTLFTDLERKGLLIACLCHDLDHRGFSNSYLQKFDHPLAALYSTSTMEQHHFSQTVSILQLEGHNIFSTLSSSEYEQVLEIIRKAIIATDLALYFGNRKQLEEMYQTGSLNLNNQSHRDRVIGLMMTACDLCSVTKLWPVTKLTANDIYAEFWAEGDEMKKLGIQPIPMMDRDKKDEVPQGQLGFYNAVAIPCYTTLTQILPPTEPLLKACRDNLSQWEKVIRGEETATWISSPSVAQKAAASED

Ki [nM]	Structure (SMILES)
0.019	Cc1c(Cl)nc(OC[C@@H]2C[C@H]2c2ccc3ncccc3n2)nc1NCc1cnn(C)c1
0.0006	Cc1nc(C)c(CNc2nc(OC[C@@H]3C[C@H]3c3ccc4ccccc4n3)nc(Cl)c2C)s1
0.17	COc1nc(OC[C@H]2C[C@@H]2c2ccc3ncccc3n2)nc(NCc2cnn(C)c2)c1C
